# Experimental data as given in EPA's ToxRefDB 2.
# Legend:
# rat [1] = settings: Sub-acute repeat dose toxicity; sprague dawley; Oral; Gavage/Intubation; dose end: 10 day; group: systemic; systemic / clinical chemistry / sorbitol dehydrogenase / sorbitol dehydrogenase
# rat [2] = settings: Sub-acute repeat dose toxicity, sprague dawley, Oral, Gavage/Intubation, dose end: 28 day, group: systemic
# dog [3] = settings: Sub-acute repeat dose toxicity; beagle; Oral; Gavage/Intubation; dose end: 30 day; group: systemic; systemic / in life observation / clinical signs / emesis + systemic / clinical chemistry / [other] / [other] + systemic / clinical chemistry…
# dog [4] = settings: Sub-acute repeat dose toxicity, beagle, Oral, Gavage/Intubation, dose end: 10 day, group: systemic
# rat [5] = settings: Subchronic oral toxicity in rodents, other, Feed, dose end: 90 day, group: systemic
# rat [6] = settings: Subchronic oral toxicity in rodents, other, Feed, dose end: 90 day, group: systemic; remark: listed apart in the source
# dog [7] = settings: Subchronic oral toxicity in nonrodent, beagle, Capsule, dose end: 96 day, group: systemic
# dog [8] = settings: Chronic toxicity, beagle, Oral, Capsule, dose end: 52 week, group: systemic
# mouse [9] = settings: Subchronic oral toxicity in rodents, cd1, Feed, dose end: 90 day, group: systemic
# mouse [10] = settings: Carcinogenicity, cd1, Oral, Feed, dose end: 78 week, group: systemic
# [11] = systemic / clinical chemistry / cholesterol / cholesterol + systemic / clinical chemistry / sorbitol dehydrogenase / sorbitol dehydrogenase…
# [12] = systemic / organ weight / liver / absolute
# [13] = systemic / in life observation / clinical signs / arrhythmia
# [14] = systemic / in life observation / clinical signs / arrhythmia + systemic / in life observation / clinical signs / convulsions
# [15] = systemic / organ weight / spleen / relative to body weight
# [16] = systemic / in life observation / clinical signs / abdominogenital staining + systemic / in life observation / clinical signs / urinary …
# [17] = systemic / in life observation / clinical signs / abdominogenital staining + systemic / in life observation / water consumption / water …
# [18] = systemic / in life observation / body weight / body weight gain + systemic / in life observation / food consumption / food efficiency
# [19] = systemic / in life observation / body weight / body weight gain + systemic / in life observation / food consumption / food efficiency + …
# [20] = systemic / pathology microscopic / liver / vacuolization
# [21] = systemic / pathology microscopic / liver / vacuolization + systemic / hematology / erythrocyte (rbc) count differential / erythrocyte (rbc…
# [22] = systemic / hematology / erythrocyte (rbc) count differential / erythrocyte (rbc) + systemic / hematology / hematocrit (hct) / hematocrit (…
smiles,measurement,setting,value
Cc1nc(C)nc(N2C[C@@H](C)N(c3ccnc([C@@H](C)O)n3)[C@@H](C)C2)n1,LEL,rat [1],1 mg/kg/day
same,LOAEL,rat [1],> 10 mg/kg/day
same,NEL,rat [1],< 1 mg/kg/day
same,NOAEL,rat [1],≥ 10 mg/kg/day
same,LOAEL,rat [2]; [11],> 20 mg/kg/day
same,NOAEL,rat [2]; [11],≥ 20 mg/kg/day
same,LEL,rat [2]; [12],2 mg/kg/day
same,NEL,rat [2]; [12],< 2 mg/kg/day
same,LEL,dog [3],6 mg/kg/day
same,LOAEL,dog [3],> 6 mg/kg/day
same,NEL,dog [3],< 6 mg/kg/day
same,NOAEL,dog [3],≥ 6 mg/kg/day
same,LEL,dog [4]; [13],1 mg/kg/day
same,NEL,dog [4]; [13],< 1 mg/kg/day
same,LOAEL,dog [4]; [14],> 6 mg/kg/day
same,NOAEL,dog [4]; [14],≥ 6 mg/kg/day
CCOC(=O)COc1cc(-n2ncc(C(F)(F)F)c(C)c2=O)c(F)cc1Cl [Flufenpyr-ethyl],LOAEL,rat [5]; systemic / in life observation / clinical signs / body surface staining + systemic / in life observation / clinical signs / urinary …,414 mg/kg/day
same,LEL,rat [5]; [15],39 mg/kg/day
same,NEL,rat [5]; [15],< 39 mg/kg/day
same,NOAEL,rat [5]; systemic / organ weight / spleen / relative to body weight + systemic / in life observation / clinical signs / body surface staining + …,134 mg/kg/day
same,LOAEL,rat [6]; [16],595 mg/kg/day
same,NOAEL,rat [6]; [16],55 mg/kg/day
same,LEL,rat [6]; [17],55 mg/kg/day
same,NEL,rat [6]; [17],< 55 mg/kg/day
same,LOAEL,dog [7]; [18],1000 mg/kg/day
same,LEL,dog [7]; [19],100 mg/kg/day
same,NEL,dog [7]; [19],< 100 mg/kg/day
same,NOAEL,dog [7]; [19],300 mg/kg/day
same,LOAEL,dog [8]; systemic / in life observation / body weight / body weight gain,1000 mg/kg/day
same,LEL,dog [8]; [18],200 mg/kg/day
same,NEL,dog [8]; [18],50 mg/kg/day
same,NOAEL,dog [8]; [18],200 mg/kg/day
same,LEL,mouse [9]; [20],395 mg/kg/day
same,LOAEL,mouse [9]; [20],395 mg/kg/day
same,NEL,mouse [9]; [21],128 mg/kg/day
same,NOAEL,mouse [9]; [21],128 mg/kg/day
same,LOAEL,mouse [10]; [22],402 mg/kg/day
same,NOAEL,mouse [10]; [22],39.9 mg/kg/day
same,LEL,mouse [10]; [20],397 mg/kg/day
same,NEL,mouse [10]; [20],43.5 mg/kg/day
